Assay results taken from ChEMBL document CHEMBL1201862, “PubChem BioAssay data set” (2004).
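Results reflect a 48-hour exposure of cells in 96-well plates to compound at five concentrations. Abbreviation: GI50, concentration required for 50% inhibition of growth.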 The source made the active and inactive calls. No stated cut-off is given here; in the data, active = GI50 up to about 1.1 µM and inactive = higher.

How the values were obtained:
Assay in all cases: NCI anticancer screen, dose series, 48 h
786-0 = system: 786-0
A498 = system: A498
ACHN = system: ACHN
BT-549 = system: BT-549
CAKI-1 = system: CAKI-1
CCRF-CEM = system: CCRF-CEM
COLO 205 = system: COLO 205
DU-145 = system: DU-145
EKVX = system: EKVX
HCC 2998 = system: HCC 2998
HCT-116 = system: HCT-116
HCT-15 = system: HCT-15
HL-60 = system: HL-60
HOP-62 = system: HOP-62
HOP-92 = system: HOP-92
HT-29 = system: HT-29
Hs-578T = system: Hs-578T
IGROV-1 = system: IGROV-1
K562 = system: K562
KM12 = system: KM12
LOX IMVI = system: LOX IMVI
M14 = system: M14
MCF7 = system: MCF7
MDA-MB-231 = system: MDA-MB-231
MDA-MB-435 = system: MDA-MB-435
MOLT-4 = system: MOLT-4
Malme-3M = system: Malme-3M
NCI-H226 = system: NCI-H226
NCI-H23 = system: NCI-H23
NCI-H460 = system: NCI-H460
NCI-H522 = system: NCI-H522
NCI/ADR-RES = system: NCI/ADR-RES
OVCAR-3 = system: OVCAR-3
OVCAR-4 = system: OVCAR-4
OVCAR-5 = system: OVCAR-5
OVCAR-8 = system: OVCAR-8
PC-3 = system: PC-3
RPMI-8226 = system: RPMI-8226
RXF 393 = system: RXF 393
SF-268 = system: SF-268
SF-295 = system: SF-295
SF-539 = system: SF-539
SK-MEL-28 = system: SK-MEL-28
SK-MEL-2 = system: SK-MEL-2
SK-MEL-5 = system: SK-MEL-5
SK-OV-3 = system: SK-OV-3
SN12C = system: SN12C
SNB-19 = system: SNB-19
SNB-75 = system: SNB-75
SR = system: SR
SW-620 = system: SW-620
T47D = system: T47D
TK-10 = system: TK-10
U-251 = system: U-251
UACC-257 = system: UACC-257
UACC-62 = system: UACC-62
UO-31 = system: UO-31
A549 = system: A549

Measured: GI50

O=C1CCCCc2cccc(O)c21
inactive: 786-0 > 100 µM | A498 > 100 µM | ACHN > 100 µM | BT-549 > 100 µM | CAKI-1 > 100 µM | CCRF-CEM > 100 µM | COLO 205 > 100 µM | DU-145 > 100 µM | EKVX > 100 µM | HCC 2998 > 100 µM | HCT-116 > 100 µM | HL-60 > 100 µM | HOP-62 > 100 µM | HOP-92 > 100 µM | HT-29 > 100 µM | Hs-578T > 100 µM | IGROV-1 > 100 µM | K562 > 100 µM | KM12 > 100 µM | LOX IMVI > 100 µM | M14 > 100 µM | MCF7 > 100 µM | MDA-MB-231 > 100 µM | MDA-MB-435 > 100 µM | MOLT-4 > 100 µM | Malme-3M > 100 µM | NCI-H226 > 100 µM | NCI-H23 > 100 µM | NCI-H460 > 100 µM | NCI-H522 > 100 µM | NCI/ADR-RES > 100 µM | OVCAR-3 > 100 µM | OVCAR-4 > 100 µM | OVCAR-5 > 100 µM | OVCAR-8 > 100 µM | PC-3 > 100 µM | RPMI-8226 > 100 µM | RXF 393 > 100 µM | SF-268 > 100 µM | SF-295 > 100 µM | SF-539 > 100 µM | SK-MEL-28 > 100 µM | SK-MEL-2 > 100 µM | SK-MEL-5 > 100 µM | SK-OV-3 > 100 µM | SN12C > 100 µM | SNB-19 > 100 µM | SNB-75 > 100 µM | SR > 100 µM | SW-620 > 100 µM | T47D > 100 µM | TK-10 > 100 µM | U-251 > 100 µM | UACC-257 > 100 µM | UACC-62 > 100 µM | UO-31 > 100 µM
> 100 µM: HCT-15

CC(C)(C)OC(=O)N(CCCCNCc1ccc2ccccc2c1)CCCNCc1ccc2ccccc2c1
inactive: 786-0 1.41 µM | A498 1.91 µM | A549 1.81 µM | ACHN 1.92 µM | BT-549 1.73 µM | CAKI-1 1.17 µM | CCRF-CEM 1.22 µM | COLO 205 1.17 µM | DU-145 1.69 µM | EKVX 1.56 µM | HCT-116 1.15 µM | HOP-62 1.86 µM | HOP-92 1.64 µM | Hs-578T 1.77 µM | IGROV-1 1.64 µM | KM12 1.3 µM | M14 1.96 µM | MCF7 1.55 µM | MDA-MB-435 1.84 µM | NCI-H226 1.64 µM | NCI-H23 1.85 µM | NCI-H522 1.58 µM | NCI/ADR-RES 1.57 µM | OVCAR-3 1.93 µM | OVCAR-4 1.67 µM | OVCAR-5 1.67 µM | OVCAR-8 1.67 µM | PC-3 1.94 µM | RXF 393 1.69 µM | SF-268 1.77 µM | SF-295 1.9 µM | SF-539 1.44 µM | SK-MEL-28 1.8 µM | SK-MEL-2 2.06 µM | SK-MEL-5 1.74 µM | SK-OV-3 1.94 µM | SN12C 1.75 µM | SNB-19 1.76 µM | SNB-75 1.52 µM | SW-620 1.75 µM | T47D 1.74 µM | TK-10 1.66 µM | U-251 1.89 µM | UACC-257 1.91 µM | UACC-62 1.66 µM | UO-31 1.73 µM
1.57 µM: HCT-15
active: HCC 2998 0.254 µM | HL-60 0.204 µM | HT-29 0.893 µM | K562 0.273 µM | MDA-MB-231 1.02 µM | MOLT-4 0.708 µM | NCI-H460 0.736 µM | RPMI-8226 1.08 µM
